Holding throughout (assay): DSF thermal shift, kinase panel
Type in all cases: binding

For one experiment, the target named is T1, SLKA (Homo sapiens, UniProt Q9H2G2).
T1 construct: purchased in-house (home-made panel, SGC-style construct names)
Particulars: 10 μM compound. As for the experimental part: (§1) The corresponding dianilino-TDZs (1–5) were tested on a panel of 46 protein kinases representing the major kinome branches at a concentration of 10 μM using a Differential Scanning Fluorimetry (DSF). Only analogues 1–3 induced a significant (>2 °C) thermal shift when incubated with a subset of the proteins (Table 1).
(§2) Kinase selectivity assay—A home-made kinase panel was generated for the following enzymes: AAK1, BMP2K, BMX, BRAF, CAMK1D, CAMK1G, CAMKK1, CAMKK2B, CDC42BPA, CDK2, CDKL1, CHEK2, CLK1, CSNK1G1, CSNK1G3, CSNK2A1, DYRK1A, DYRK2A, EPHA2, GAK, GSG2, MAPK1, MAP2K7, MAPK14B, MAPK3, PHKG2, PIM1, PLK1, PKMYT1, PRPF4B, RPS6KA1A, RPS6KA5A, RPS6KA6A, SLK, SRPK1, SRPK2, STK3, STK6, STK10, STK17A, STK24, STK38L, TRIB2, TTK, VRK1 and VRK2. Proteins were produced in E. coli, purified in a Ni-chelate column, followed by overnight digestion using TEV protease (made in house with an N-terminal 6xHis tag) and dialysis to remove imidazole. To clear samples of uncleaved proteins and the TEV protease, samples were loaded on new Ni-chelate columns. The flow through was collected, concentrated and loaded to a HiLoad Superdex 200 16/600 column (GE Healthcare, Chicago, IL, USA) for final polishing and buffer exchange.
(§3) Starting from 100 µM protein stocks, our kinase panel enzymes were diluted to 1 µM in buffer 100 mM K2HPO4 pH 7.5 containing 150 mM NaCl, 10% glycerol and 5X dye (Applied Biosystems catalogue 4461806). The protein/dye mixture was transferred to a 384-well PCR microplate having 20 µL per well. Compounds in DMSO at 10 mM concentration were added in 20 nL volume, using a liquid handling device setup with a pin head, to make 10 µM compound concentration in the assay plate.
(§4) Protein thermal shift data was measured in a qPCR instrument (Applied Biosystems QuantStudio 6) programmed to equilibrate the plate at 25 °C for 5 min followed by ramping the temperature to 95 °C at a rate of 0.05 °C/s. Data was processed using Protein Thermal shift software (Applied Biosystems) by fitting experimental curves to a Boltzmann function to calculate differential thermal shifts (dTm) referenced to protein/dye in 0.2% DMSO.

A further experiment concerns the target T2, PLK1A (Homo sapiens, UniProt P53350).
T2 construct: purchased in-house (home-made panel, SGC-style construct names)
Particulars: 10 μM compound. As for the experimental part:
as §1, §2, §3, §4

The next experiment addresses T3, PRPF4BA (Homo sapiens, UniProt Q13523).
T3 construct: purchased in-house (home-made panel, SGC-style construct names)
The conditions noted are these: 10 μM compound. As for the experimental part: as §1, §2, §3, §4

The target of the next experiment is T4, BMP2K (Homo sapiens, UniProt Q9NSY1).
T4 construct: purchased in-house (home-made panel, SGC-style construct names)
Particulars: 10 μM compound. As for the experimental part:
as §1, §2, §3, §4

The target in a further experiment is T5, CHEK2 (Homo sapiens, UniProt O96017).
T5 construct: purchased in-house (home-made panel, SGC-style construct names)
T5 sequence (O96017 whole entry): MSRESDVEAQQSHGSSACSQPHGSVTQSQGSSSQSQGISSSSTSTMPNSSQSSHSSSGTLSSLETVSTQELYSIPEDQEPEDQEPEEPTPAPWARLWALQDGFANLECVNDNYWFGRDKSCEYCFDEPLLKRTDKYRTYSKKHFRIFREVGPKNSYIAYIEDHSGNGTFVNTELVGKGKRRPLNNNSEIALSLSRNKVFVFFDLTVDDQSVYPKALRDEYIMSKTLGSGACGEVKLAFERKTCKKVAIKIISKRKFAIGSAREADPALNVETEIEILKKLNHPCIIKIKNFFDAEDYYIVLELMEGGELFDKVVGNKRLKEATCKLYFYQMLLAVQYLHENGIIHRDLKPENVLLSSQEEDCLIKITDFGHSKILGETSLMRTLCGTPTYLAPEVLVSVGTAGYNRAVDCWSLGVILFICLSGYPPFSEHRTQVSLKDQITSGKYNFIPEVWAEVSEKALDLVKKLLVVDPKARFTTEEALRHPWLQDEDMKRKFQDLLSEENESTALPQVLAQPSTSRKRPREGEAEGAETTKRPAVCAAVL
Particulars: 10 μM compound. As for the experimental part:
as §1, §2, §3, §4

In another experiment the target is T6, CSNK2A1 (Homo sapiens, UniProt P68400).
T6 construct: purchased in-house (home-made panel, SGC-style construct names)
T6 sequence (P68400 whole entry): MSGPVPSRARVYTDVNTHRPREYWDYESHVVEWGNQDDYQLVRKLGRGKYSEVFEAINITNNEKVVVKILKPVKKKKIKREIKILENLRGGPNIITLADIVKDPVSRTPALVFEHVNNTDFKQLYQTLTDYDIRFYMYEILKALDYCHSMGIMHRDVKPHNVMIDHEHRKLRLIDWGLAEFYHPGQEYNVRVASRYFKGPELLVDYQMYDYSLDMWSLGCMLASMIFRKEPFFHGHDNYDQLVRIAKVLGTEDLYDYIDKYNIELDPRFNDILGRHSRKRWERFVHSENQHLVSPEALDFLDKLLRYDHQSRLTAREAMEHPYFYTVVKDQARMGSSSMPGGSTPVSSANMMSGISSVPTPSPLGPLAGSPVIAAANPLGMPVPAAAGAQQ
Particulars: read-out: ΔTm. As for the experimental part:
as §1, §2, §3, §4

The next experiment has as its target T7, CAMK1D (Homo sapiens, UniProt Q8IU85).
T7 construct: purchased in-house (home-made panel, SGC-style construct names)
Particulars: 10 μM compound. As for the experimental part:
as §1, §2, §3, §4

In the next experiment the target is T8, CDKL1 (Homo sapiens, UniProt Q00532).
T8 construct: purchased in-house (home-made panel, SGC-style construct names)
T8 sequence (Q00532 whole entry): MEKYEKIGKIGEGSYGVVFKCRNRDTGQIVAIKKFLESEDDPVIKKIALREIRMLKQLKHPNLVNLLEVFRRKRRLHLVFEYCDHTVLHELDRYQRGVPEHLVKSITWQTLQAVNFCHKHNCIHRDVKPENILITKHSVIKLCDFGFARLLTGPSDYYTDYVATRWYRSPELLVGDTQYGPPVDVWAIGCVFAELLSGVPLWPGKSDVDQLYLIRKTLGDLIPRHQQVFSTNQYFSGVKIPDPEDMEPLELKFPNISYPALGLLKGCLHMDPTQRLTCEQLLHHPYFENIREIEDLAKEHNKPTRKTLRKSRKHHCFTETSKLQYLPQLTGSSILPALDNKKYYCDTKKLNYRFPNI
The conditions noted are these: 10 μM compound. As for the experimental part:
as §1, §2, §3, §4

For the next experiment, the target named is T9, GSG2A (Homo sapiens, UniProt Q8TF76).
T9 construct: purchased in-house (home-made panel, SGC-style construct names)
T9 sequence (Q8TF76 1-798): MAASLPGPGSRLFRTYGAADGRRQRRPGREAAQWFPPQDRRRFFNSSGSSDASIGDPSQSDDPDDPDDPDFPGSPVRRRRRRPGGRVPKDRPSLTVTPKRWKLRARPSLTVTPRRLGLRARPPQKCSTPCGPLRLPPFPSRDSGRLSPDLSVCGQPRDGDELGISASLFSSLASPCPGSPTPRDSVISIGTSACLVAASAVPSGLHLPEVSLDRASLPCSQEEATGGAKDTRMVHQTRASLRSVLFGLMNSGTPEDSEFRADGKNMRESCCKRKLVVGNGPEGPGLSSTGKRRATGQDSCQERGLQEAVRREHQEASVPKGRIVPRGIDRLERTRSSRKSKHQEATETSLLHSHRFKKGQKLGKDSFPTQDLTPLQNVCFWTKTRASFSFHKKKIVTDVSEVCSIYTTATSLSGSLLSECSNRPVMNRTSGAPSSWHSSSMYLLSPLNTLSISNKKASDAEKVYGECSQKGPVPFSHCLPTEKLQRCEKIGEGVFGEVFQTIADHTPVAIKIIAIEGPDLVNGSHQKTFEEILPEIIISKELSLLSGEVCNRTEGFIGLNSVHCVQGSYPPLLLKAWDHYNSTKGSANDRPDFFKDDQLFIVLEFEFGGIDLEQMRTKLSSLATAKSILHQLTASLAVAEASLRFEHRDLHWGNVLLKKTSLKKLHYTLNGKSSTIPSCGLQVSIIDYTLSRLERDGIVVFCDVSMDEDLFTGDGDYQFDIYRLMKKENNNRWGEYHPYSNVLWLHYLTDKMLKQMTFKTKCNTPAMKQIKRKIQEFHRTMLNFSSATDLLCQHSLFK
The conditions noted are these: 10 μM compound. As for the experimental part: as §1, §2, §3, §4

Another experiment addresses T10, VRK1 (Homo sapiens, UniProt Q99986).
T10 construct: TEV-cleavable (cleaved yes); made in house; host or cells: E. coli
T10 sequence (Q99986 1-396): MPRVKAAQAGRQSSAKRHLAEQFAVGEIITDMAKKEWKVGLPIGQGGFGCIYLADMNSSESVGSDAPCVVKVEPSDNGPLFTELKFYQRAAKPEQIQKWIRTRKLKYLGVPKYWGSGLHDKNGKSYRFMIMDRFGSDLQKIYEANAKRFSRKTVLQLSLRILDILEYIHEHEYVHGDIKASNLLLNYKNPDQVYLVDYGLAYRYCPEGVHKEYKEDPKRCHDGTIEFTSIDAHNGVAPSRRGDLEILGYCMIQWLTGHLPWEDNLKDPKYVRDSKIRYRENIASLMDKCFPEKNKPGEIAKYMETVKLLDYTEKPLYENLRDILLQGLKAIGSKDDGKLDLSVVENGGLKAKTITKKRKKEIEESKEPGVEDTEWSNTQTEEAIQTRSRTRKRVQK
The conditions noted are these: 10 μM compound. As for the experimental part: as §1, §2, §3, §4

The next experiment deals with T11, CAMK1G (Homo sapiens, UniProt Q96NX5).
T11 construct: purchased in-house (home-made panel, SGC-style construct names)
T11 sequence (Q96NX5 whole entry): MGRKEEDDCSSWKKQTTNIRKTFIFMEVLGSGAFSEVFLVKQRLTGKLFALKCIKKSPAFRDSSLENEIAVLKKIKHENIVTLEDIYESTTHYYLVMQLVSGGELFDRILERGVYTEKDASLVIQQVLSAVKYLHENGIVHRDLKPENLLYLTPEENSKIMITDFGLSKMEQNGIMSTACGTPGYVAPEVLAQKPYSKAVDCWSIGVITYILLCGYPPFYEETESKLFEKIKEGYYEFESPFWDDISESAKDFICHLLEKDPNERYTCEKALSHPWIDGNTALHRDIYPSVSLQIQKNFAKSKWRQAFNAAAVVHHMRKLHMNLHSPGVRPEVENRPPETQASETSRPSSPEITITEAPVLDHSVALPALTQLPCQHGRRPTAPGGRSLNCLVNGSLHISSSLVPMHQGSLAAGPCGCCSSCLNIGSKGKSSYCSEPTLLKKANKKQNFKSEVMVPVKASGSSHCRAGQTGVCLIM
The conditions noted are these: 10 μM compound. As for the experimental part: as §1, §2, §3, §4

SMILES strings stand for the structures. Where two headings read alike, the source gives them in different places.

T1 sequence (Q9H2G2 whole entry): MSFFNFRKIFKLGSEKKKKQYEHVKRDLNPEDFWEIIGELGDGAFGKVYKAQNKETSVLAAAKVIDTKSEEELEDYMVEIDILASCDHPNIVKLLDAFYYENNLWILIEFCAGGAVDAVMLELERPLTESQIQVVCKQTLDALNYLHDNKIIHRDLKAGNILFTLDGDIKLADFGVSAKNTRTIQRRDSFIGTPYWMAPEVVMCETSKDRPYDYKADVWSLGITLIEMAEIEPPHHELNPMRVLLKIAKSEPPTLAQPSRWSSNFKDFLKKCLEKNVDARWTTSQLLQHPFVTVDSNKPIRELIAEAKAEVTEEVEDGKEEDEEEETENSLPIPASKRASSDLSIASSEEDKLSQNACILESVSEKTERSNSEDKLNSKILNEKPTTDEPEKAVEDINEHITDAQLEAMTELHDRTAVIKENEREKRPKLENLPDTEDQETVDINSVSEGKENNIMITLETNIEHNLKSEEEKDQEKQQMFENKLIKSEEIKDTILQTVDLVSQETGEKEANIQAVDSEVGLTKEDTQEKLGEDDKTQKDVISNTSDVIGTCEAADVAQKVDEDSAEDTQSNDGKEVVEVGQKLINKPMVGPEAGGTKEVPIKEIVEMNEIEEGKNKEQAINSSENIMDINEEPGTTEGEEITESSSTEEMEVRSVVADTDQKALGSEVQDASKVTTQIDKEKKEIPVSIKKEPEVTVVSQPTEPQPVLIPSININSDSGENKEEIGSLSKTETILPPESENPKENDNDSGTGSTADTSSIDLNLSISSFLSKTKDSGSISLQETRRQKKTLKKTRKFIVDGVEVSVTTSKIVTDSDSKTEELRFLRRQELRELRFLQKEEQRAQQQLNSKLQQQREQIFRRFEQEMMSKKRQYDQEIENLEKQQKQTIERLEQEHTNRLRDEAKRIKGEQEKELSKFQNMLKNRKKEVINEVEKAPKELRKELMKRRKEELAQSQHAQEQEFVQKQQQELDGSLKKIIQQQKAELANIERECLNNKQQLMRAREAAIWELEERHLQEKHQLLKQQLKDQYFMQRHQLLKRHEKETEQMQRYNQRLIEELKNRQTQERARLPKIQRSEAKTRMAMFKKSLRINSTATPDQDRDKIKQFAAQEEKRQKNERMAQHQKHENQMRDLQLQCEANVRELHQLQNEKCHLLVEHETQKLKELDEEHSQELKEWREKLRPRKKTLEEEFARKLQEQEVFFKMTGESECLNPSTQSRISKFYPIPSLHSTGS
T2 sequence (P53350 whole entry): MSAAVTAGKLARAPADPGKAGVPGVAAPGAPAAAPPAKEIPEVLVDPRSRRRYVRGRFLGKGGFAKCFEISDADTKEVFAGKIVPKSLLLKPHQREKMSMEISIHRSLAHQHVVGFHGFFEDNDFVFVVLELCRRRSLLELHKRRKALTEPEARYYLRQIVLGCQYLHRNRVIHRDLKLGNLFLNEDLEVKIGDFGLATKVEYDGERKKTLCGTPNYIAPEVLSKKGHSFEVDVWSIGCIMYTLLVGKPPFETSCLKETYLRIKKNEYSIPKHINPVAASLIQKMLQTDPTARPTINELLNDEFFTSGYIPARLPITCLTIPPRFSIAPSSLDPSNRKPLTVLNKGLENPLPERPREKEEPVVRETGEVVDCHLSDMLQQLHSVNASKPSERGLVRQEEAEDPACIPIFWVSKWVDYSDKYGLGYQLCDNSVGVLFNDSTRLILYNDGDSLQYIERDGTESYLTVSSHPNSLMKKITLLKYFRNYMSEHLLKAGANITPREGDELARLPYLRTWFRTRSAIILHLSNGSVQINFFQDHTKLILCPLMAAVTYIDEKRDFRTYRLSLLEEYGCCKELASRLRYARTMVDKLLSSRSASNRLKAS
T7 sequence (Q8IU85 whole entry): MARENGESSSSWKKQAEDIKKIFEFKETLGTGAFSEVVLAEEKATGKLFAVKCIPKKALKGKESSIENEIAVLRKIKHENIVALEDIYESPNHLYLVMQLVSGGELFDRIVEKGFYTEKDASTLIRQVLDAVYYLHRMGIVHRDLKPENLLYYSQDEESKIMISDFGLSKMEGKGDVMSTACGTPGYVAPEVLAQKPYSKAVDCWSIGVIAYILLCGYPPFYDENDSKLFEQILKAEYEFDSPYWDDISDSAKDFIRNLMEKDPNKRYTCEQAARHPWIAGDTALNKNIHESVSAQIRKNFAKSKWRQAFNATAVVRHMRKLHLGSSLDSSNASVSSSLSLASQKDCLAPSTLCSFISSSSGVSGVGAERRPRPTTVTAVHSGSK
T3 sequence (Q13523 whole entry): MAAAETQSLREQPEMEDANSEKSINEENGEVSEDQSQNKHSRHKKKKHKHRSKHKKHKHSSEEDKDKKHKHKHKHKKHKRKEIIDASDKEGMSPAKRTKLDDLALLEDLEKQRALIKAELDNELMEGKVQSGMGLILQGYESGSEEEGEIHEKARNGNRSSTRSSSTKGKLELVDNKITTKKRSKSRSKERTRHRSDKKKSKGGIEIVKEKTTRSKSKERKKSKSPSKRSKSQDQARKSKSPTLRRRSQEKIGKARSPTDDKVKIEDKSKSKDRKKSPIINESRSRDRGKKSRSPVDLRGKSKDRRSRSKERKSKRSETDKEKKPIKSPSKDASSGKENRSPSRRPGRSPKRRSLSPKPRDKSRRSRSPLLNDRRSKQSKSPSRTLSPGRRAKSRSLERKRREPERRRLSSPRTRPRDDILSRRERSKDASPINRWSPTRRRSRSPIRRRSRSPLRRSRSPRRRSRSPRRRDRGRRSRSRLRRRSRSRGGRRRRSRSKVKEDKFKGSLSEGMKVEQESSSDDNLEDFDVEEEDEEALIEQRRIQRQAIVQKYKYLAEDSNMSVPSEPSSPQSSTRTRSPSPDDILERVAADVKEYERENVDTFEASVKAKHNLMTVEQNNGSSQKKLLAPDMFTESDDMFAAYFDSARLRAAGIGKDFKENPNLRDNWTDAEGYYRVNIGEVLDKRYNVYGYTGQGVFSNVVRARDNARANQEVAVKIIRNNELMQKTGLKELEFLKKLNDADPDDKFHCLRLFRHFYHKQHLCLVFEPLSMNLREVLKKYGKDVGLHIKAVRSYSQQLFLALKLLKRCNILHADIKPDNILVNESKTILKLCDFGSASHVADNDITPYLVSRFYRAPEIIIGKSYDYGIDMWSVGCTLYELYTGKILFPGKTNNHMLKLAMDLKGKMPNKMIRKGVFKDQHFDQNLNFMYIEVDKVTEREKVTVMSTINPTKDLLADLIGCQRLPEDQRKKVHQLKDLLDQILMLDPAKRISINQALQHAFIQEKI

Broadly, the ΔTm is the shift of the melting midpoint relative to a reference. As for `CNC(=O)c1ccccc1Nc1nsnc(Nc2cccc(CS(C)(=O)=O)c2)c1=O` [Compound 4, N-Methyl-2-([5-({3-[(methylsulfonyl)methyl]phenyl}amino)-4-oxo-4H-1,2,6-thiadiazin-3-yl]-amino}-benzamide], the ΔTm at 10 µM is -0.8 °C at SLKA; 0.2 °C on PLK1A; 0.1 °C at PRPF4BA; -0.1 °C at BMP2K; 0.6 °C on CHEK2; -0.4 °C at CSNK2A1 (DSF, 10 μM compound). Besides, the ΔTm at 10 µM on CAMK1D is -1.3 °C; on CDKL1, 0.5 °C; on GSG2A, 0.4 °C; on VRK1 it was -0.3 °C; at CAMK1G, 0.2 °C.

For the compound `CNC(=O)c1ccccc1Nc1nsnc(Nc2ccc(N3CCOCC3)cc2)c1=O` [Compound 5, N-Methyl-2-({5-[(4-morpholinophenyl)amino]-4-oxo-4H-1,2,6-thiadiazin-3-yl}amino)benzamide], the ΔTm at 10 µM is -0.7 °C at SLKA; 0.2 °C on PLK1A; 0.1 °C at PRPF4BA; -0.1 °C on BMP2K; 0.8 °C on CHEK2; -0.4 °C at CSNK2A1 (DSF, 10 μM compound). Also, the ΔTm at 10 µM on CAMK1D is -0.9 °C; at CDKL1, 0.5 °C; at GSG2A it was 0.3 °C; at VRK1 it was -0.3 °C; on CAMK1G, 0.1 °C.

For the compound `Cc1ccc(Nc2nsnc(Nc3cccc(C(N)=O)c3)c2=O)cc1O` [Compound 1, 3-({5-[(3-Hydroxy-4-methylphenyl)amino]-4-oxo-4H-1,2,6-thiadiazin-3-yl}amino)benzamide], the ΔTm at 10 µM was -0.6 °C on SLKA; 0.3 °C at PLK1A; 0.7 °C at PRPF4BA; -0.4 °C at BMP2K; 0.6 °C at CHEK2; -0.9 °C at CSNK2A1 (DSF, 10 μM compound). Besides, the ΔTm at 10 µM at CAMK1D was 0.8 °C; at CDKL1, 1.2 °C; on GSG2A, 0.6 °C; at VRK1 it was -0.4 °C; at CAMK1G, 1.8 °C.

With `Cc1ccc(Nc2nsnc(Nc3ccc(C(N)=O)cc3)c2=O)cc1O` [Compound 2, 4-({5-[(3-Hydroxy-4-methylphenyl)amino]-4-oxo-4H-1,2,6-thiadiazin-3-yl}amino)benzamide], the ΔTm at 10 µM is -0.1 °C on SLKA; -0.2 °C at PLK1A; 0.1 °C at PRPF4BA; -0.2 °C at BMP2K; 3.1 °C on CHEK2; -0.2 °C at CSNK2A1. Further, the shift in melting temperature (ΔTm) at 10 µM at CAMK1D is 4.3 °C; at CDKL1, 1 °C; at GSG2A it was 1.3 °C; at VRK1, -0.7 °C; on CAMK1G it was 3.3 °C.

For the compound `Cc1ccc(Nc2nsnc(Nc3ccc4c(c3)CS(=O)(=O)C4)c2=O)cc1O` [Compound 3, 3-[(2,2-Dioxido-1,3-dihydrobenzo[c]thiophen-5-yl)amino]-5-[(3-hydroxy-4-methylphenyl)amino]-4H-1,2,6-thiadiazin-4-one], the ΔTm at 10 µM at SLKA was -0.2 °C; at PLK1A, 1.1 °C; at PRPF4BA, 0.6 °C; on BMP2K, 0.1 °C; at CHEK2, 1.6 °C; on CSNK2A1 (DSF, 10 μM compound), -0.6 °C. The ΔTm at 10 µM is 1.4 °C at CAMK1D; 0.9 °C on CDKL1; 1.2 °C on GSG2A; -0.2 °C at VRK1; 3 °C on CAMK1G.

Source of the values: article PMC6019134, “1,2,6-Thiadiazinones as Novel Narrow Spectrum Calcium/Calmodulin-Dependent Protein Kinase Kinase 2 (CaMKK2) Inhibitors” (Molecules : A Journal of Synthetic Chemistry and Natural …, 2018).
